Where a name gives a salt, the structure may show the parent alone. Read-outs that look alike come from different tables or passages of the source.
How the values were obtained:
[1] = test system: cholesterol biosynthesis in which HMG-CoA reductase serves as a rate limiting enzyme (rat liver microsome and sup fraction); test: Test A: Inhibition of cholesterol biosynthesis from acetate in vitro; assay type: biochemical, male Wistar rat; conditions: for Relative activities by Test A: based on the activities of CS-514 by Test A being evaluated to be 1; for IC50: Test A, rat liver microsome and sup fraction, [2-14C]sodium acetate, 2 hours at 37° C., read-out: IC50 (molar concentration), inhibitory activities by Test A
Experimental: Enzyme solution was prepared from liver of male Wistar rat billialy connulated and discharged bile for over 24 hours. Liver was cut out at mid-dark and microsome and supernatant fraction which was precipitable with 40-80% of saturation of ammonium sulfate (sup fraction) were prepared from liver homogenate according to the modified merhod of Knauss et. al.; Kuroda, M., et. al., Biochim. Biophys. Acta, 489, 119 (1977). For assay of cholesterol biosynthesis, microsome (0.1 mg protein) and sup fraction (1.0 mg protein) were incubated for 2 hours at 37° C. in 200 μl of the reaction mixture containing ATP; 1 mM, Glutathione; 6 mM, Glucose-1-phosphate; 10 mM, NAD; 0.25 mM, NADP; 0.25 mM, CoA; 0.04 mM and 0.2 mM [2-^14 C]sodium acetate (0.2 μCi) with 4 μl of test compound solution dissolved in water or dimethyl sulfoxide. To stop reaction and saponify, 1 ml of 15% EtOH-KOH was added to the reactions and heated at 75° C. for 1 hour. Nonsaponifiable lipids were extracted with petroleum ether and incorporated ^14 C radioactivity was counted. Inhibitory activity of compounds was indicated with IC50.
(§1) With respect to the compounds of the present invention, the inhibitory activities against the cholesterol biosynthesis in which HMG-CoA reductase serves as a rate limiting enzyme, were measured by the above Test A and B. The results are shown in Tables 2, 2-2 and 3. Further, the results of the measurements by Test C are also presented.

cholesterol biosynthesis = test: Test C: Inhibition of cholesterol biosynthesis in vivo; set-up: species or system Male Sprague-Dawley rats; conditions: rats
Experimental: Male Sprague-Dawley rats weighing about 150 g were fed normal Purina chow diet and water ad libitum, and exposed to 12 hours light/12 hours dark lighting pattern (2:00 PM-2:00 AM dark) prior to use for in vivo inhibition test of cholesterol biosynthesis. Animals were separated groups consisting of five rats as to be average mean body weight in each groups. […] As control, rats were orally administered only water or vehicle. At 90 minutes after sample administration, rats were injected intraperitoneally with 10 μCi of [2-^14 C]sodium acetate at volume of 0.2 ml per one. 2 Hours later, blood samples were obtained and serum were separated immediately. Total lipids were extracted according to the method of Folch et al. and saponified with EtOH-KOH. Nonsaponifiable lipids were extracted with petroleum ether and radio activity incorporated into nonsaponifiable lipids was counted.
Inhibitory activity was indicated as percent decrease of counts in testing groups (DPM/2 ml serum/2 hours) from that in control group.

[2] = test system: cholesterol biosynthesis in Hep G2 cells; test: Test B: Inhibition of cholesterol biosynthesis in culture cells; assay type: cell-based; conditions: acetate added at 0 hr; for Relative activities by Test B-1: based on the activities of CS-514 by Test B-1 being evaluated to be 1
Experimental: Hep G2 cells at over 5th passage were seeded to 12 well plates and incubated with Dulbecco's modified Eagle (DME) medium containing 10% of fetal bovine serum (FBS) at 37° C., 5% CO2 until cells were confluent for about 7 days. Cells were exposed to the DME medium containing 5% of lipoprotein deficient serum (LpDS) prepared by ultracentrifugation method for over 24 hours. Medium was changed to 0.5 ml of fresh 5% LpDS containing DME before assay and 10 μl of test compound solution dissolved in water or DMSO were added. 0.2 μCi of [2-^14 C]sodium acetate (20 μl ) was added at 0 hr(B-1) or 4 hrs(B-2) after addition of compounds. After 4 hrs further incubation with [2-^14 C]sodium acetate, medium was removed and cells were washed with phosphate buffered saline(PBS) chilled at 4° C. Cells were scraped with rubber policeman and collected to tubes with PBS and digested with 0.2 ml of 0.5 N KOH at 37° C. Aliquot of digestion was used for protein analysis and remaining was saponified with 1 ml of 15% EtOH-KOH at 75° C. for 1 hour. Nonsaponifiable lipids were extracted with petroleum ether and ^14 C radioactivity was counted. Counts were revised by cell protein and indicated with DPM/mg protein. Inhibitory activity of compounds was indicated with IC50.
as §1

Test D: Acute toxicity = test: Test D: Acute toxicity; set-up: species or system ICR male mice; conditions: mouse, in vivo, oral, 0.5% CMC suspension, read-out: mortality after seven days
Experimental: A 0.5% CMC suspension of a test compound was orally administered to ICR male mice (group of from one to three mice). The acute toxicity was determined based on the mortality after seven days. With compound I-5-8 and I-5-11 of the present invention, the mortality was 0% even when they were orally administered in an amount of 824 mg/kg and 982 mg/kg, respectively.

| SMILES | Relative activities by Test A [1] | Relative activities by Test B-1 [2] | other results |
| --- | --- | --- | --- |
| CC(C)c1nc(-c2ccccc2)nc(-c2ccc(F)cc2)c1/C=C/[C@@H]1C[C@@H](O)CC(=O)O1 (relative stereo) [Compound I-3-8, (E)-6-[4'-(4''-fluorophenyl)-6'-(1''-methylethyl)-2'-phenylpyrimidin-5 '-ylethenyl]-4-hydroxy-3,4,5,6-tetrahydro-2H-pyran-2-one] | 5.2 |  |  |
| CC[C@H](C)C(=O)O[C@H]1C[C@H](O)C=C2C=C[C@H](C)[C@H](CC[C@@H](O)C[C@@H](O)CC(=O)O)[C@H]21 [CS-514, reference compound] |  |  | percent decrease of counts relative to control group (cholesterol biosynthesis; oral administration of 10 mg/kg): 55%; IC50 ([2]; Homo sapiens, HepG2, Test B-1, Hep G2 cells, read-out: IC50 (molar concentration), Test B-1): 1400 nM; IC50 [1]: 12.5 nM |
| CCOC(=O)CC(O)CC(O)/C=C/c1c(-c2ccc(F)cc2)nc(Cc2ccccc2)nc1C1CC1 (centres unmarked) [Compound I-1-12] |  | 41.3 |  |
| CCOC(=O)CC(O)CC(O)/C=C/c1c(-c2ccc(F)cc2)nc(-c2cccc(Cl)c2)nc1C1CC1 (centres unmarked) [Compound I-1-13] |  | 41.6 |  |
| CCOC(=O)CC(O)CC(O)/C=C/c1c(-c2ccc(F)cc2)nc(-c2ccc(OC)cc2)nc1C1CC1 (centres unmarked) [Compound I-1-14] |  | 72.5 |  |
| Cc1nc(-c2ccccc2)nc(-c2ccc(F)cc2)c1/C=C/C(O)CC(O)CC(=O)O (centres unmarked) [Compound I-5-1, Sodium salt of (E)-3,5-dihydroxy-7-[4'-(4''-fluorophenyl)-6'methyl-2 2'-phenylpyrimidin-5'-yl]hept-6-enoic acid] |  |  | IC50 [1]: 18 nM |
| Cc1nc(C)c(/C=C/C(O)CC(O)CC(=O)O)c(-c2ccccc2)n1 (centres unmarked) [Compound I-5-2] |  |  | IC50 [1]: 5000 nM |
| Cc1nc(-c2ccccc2)nc(-c2ccccc2)c1/C=C/C(O)CC(O)CC(=O)O (centres unmarked) [Compound I-5-3] |  |  | IC50 [1]: 100 nM |
| CC(C)c1nc(-c2ccccc2)nc(-c2ccc(F)cc2)c1/C=C/C(O)CC(O)CC(=O)O (centres unmarked) [Compound I-5-8] | 4.6 | 36.1 | mortality at 168 h (Test D: Acute toxicity; 824 mg/kg): 0% |
| O=C(O)CC(O)CC(O)/C=C/c1c(-c2ccc(F)cc2)nc(-c2ccccc2)nc1C1CC1 (centres unmarked) [Compound I-5-11] | 15.9 | 28.4 | mortality at 168 h (Test D: Acute toxicity; 982 mg/kg): 0% |
| CC[C@H](C)C(=O)O[C@H]1C[C@@H](C)C=C2C=C[C@H](C)[C@H](CC[C@@H]3C[C@@H](O)CC(=O)O3)[C@H]21 [Mevinolin, reference compound] |  |  | IC50 [1]: 14 nM |

More lines, main results first:

| Relative activities by Test A [1] | SMILES | Relative activities by Test B-1 [2] | other results |
| --- | --- | --- | --- |
| 14.8 | O=C(O)CC(O)CC(O)/C=C/c1c(-c2ccc(F)cc2)nc(Cc2ccccc2)nc1C1CC1 (centres unmarked) [Compound I-5-12] | 46.3 |  |
| 15.9 | O=C(O)CC(O)CC(O)/C=C/c1c(-c2ccc(F)cc2)nc(-c2cccc(Cl)c2)nc1C1CC1 (centres unmarked) [Compound I-5-13] |  |  |
| 16.1 | COc1ccc(-c2nc(-c3ccc(F)cc3)c(/C=C/C(O)CC(O)CC(=O)O)c(C3CC3)n2)cc1 (centres unmarked) [Compound I-5-14] |  |  |
| 14.5 | Cc1ccc(-c2nc(-c3ccc(F)cc3)c(/C=C/C(O)CC(O)CC(=O)O)c(C3CC3)n2)cc1 (centres unmarked) [Compound I-5-15] | 58.5 | percent decrease of counts relative to control group (cholesterol biosynthesis; oral administration of 0.5 mg/kg): 35% |
| 1.9 | O=C(O)CC(O)CC(O)/C=C/c1c(-c2ccc(F)cc2)nc(-c2ccc(-c3ccccc3)cc2)nc1C1CC1 (centres unmarked) [Compound I-5-16] |  |  |
| 12.2 | O=C(O)CC(O)CC(O)/C=C/c1c(-c2ccc(F)cc2)nc(-c2cccc(C(F)(F)F)c2)nc1C1CC1 (centres unmarked) [Compound I-5-17] |  |  |
